Laboratory results as given in patent US12338218B2, “Crystal form of benzimidazole-2-one compound, solvate thereof, crystal form of solvate thereof, and preparation method thereof” (MEDSHINE DISCOVERY INC., priority 2019, dated 2025).

Assays:
[1] = tested on: lipopolysaccharide (LPS)-induced TNFα production in human peripheral blood mononuclear cells; experiment: Inhibition of LPS-induced TNFα production in hPBMC (ELISA); type: cell-based
Procedure: Inhibitory activity of compound 1 on lipopolysaccharide (LPS)-induced TNFα production in human peripheral blood mononuclear cells.
PBMC cells were inoculated into a 96-well plate of cell culture grade at a density of 100,000 cells/100 μL/well. The cell culture medium was RPMI-1640 supplemented with 10% serum. The plate was incubated in a 37° C., 5% CO2 incubator for 2 hours. 16.8 μL/well of the assay compound was added to the cells and then the cells were incubated in a 37° C., 5% CO2 incubator for 60 minutes. 16.8 μL/well of LPS was then added to the cells and the cells were incubated in a 37° C., 5% CO2 incubator for 18 hours. The final DMSO concentration was 0.1%.
In the first step, compound 1 was diluted from a stock concentration to 1.5 mM with 100% DMSO. In the second step, the diluted compound was used as the first point and serially diluted 3-fold with 100% DMSO for 9 points. In the third step, the compound was diluted 125-fold with a serum-free medium, at which time the concentration of DMSO was 0.8%. Then 16.8 μL of the compound diluted with the medium was transferred to a 100 μL cell plate.
The compound was added, and then the cell plate was placed in a 37° C., 5% CO2 incubator and incubated for 1 hour.
In the first step, LPS was diluted with ultrapure water to a stock concentration of 1 mg/mL. […]

[2] = biological target: Recombinant human PDE4B (Homo sapiens (Human), UniProt Q07343); experiment: PDE4B enzyme inhibition, fluorescence polarization (Transcreener AMP2/GMP2); type: biochemical
Procedure: The biological assay was based on fluorescence polarization measurement of AMP/GMP expression, that is, tracing binding of AMP/GMP antibody to indicate the activity of the enzyme.
Buffer solution for the assay: 10 mM trihydroxymethyl aminomethane-hydrochloric acid buffer solution (Tris-HCl) (pH 7.5), 5 mM MgCl2, 0.01% polyoxyethylene lauryl ether (Brij 35), 1 mM dithiothreitol (DTT), and 1% DMSO.
Enzyme: Recombinant human PDE4B (Genebank Accession Number NM_002600; amino acid 305 terminal) was expressed with baculovirus in Sf9 insect cells using N-terminal GST tag. MW=78 kDa.
Enzyme substrate: 1 μM cAMP
Detection: Transcreener® AMP2/GMP2 antibody and AMP2/GMP2 AlexaFluor633 tracing.
• 1. Dissolving the recombinant human PDE4B enzyme and enzyme substrate (1 μM cAMP) in freshly prepared assay buffer, respectively; • 2. Transferring the above PDE4B enzyme buffer solution to reaction wells; • 3. Adding compound 1 dissolved with 100% DMSO to reaction wells with the PDE4B enzyme buffer solution via acoustic technology (echo 550 nanoliter range) and incubating at room temperature for 10 min; • 4. […] The range of fluorescence polarization determination was Ex/Em=620/688. […]
The fluorescence polarization signal was converted into nM based on AMP/GMP standard curve and % enzyme activity calculated by Excel software relative to the DMSO control. […]

[3] = tested on: PMA-induced ear edema in CD-1 mice; experiment: In vivo model of PMA-induced ear edema in CD-1 mice; details: for inhibition rate of ear edema / inhibition rate of ear weight gain: application BID, 10 hours after PMA induction
Procedure: 1 mL of acetone was added to completely dissolve 1 mg of PMA, and then 800 μL of mother liquor was pipetted and added to 2400 μL of acetone to prepare 0.25 mg/mL PMA.
CD-1 mice were sorted according to ear thickness and body weight. […] 10 μL of PMA with a concentration of 0.25 mg/mL was applied to the front and back sides of the right ear of each mouse.
The mice in the first group were normal mice, and these mice will not be treated in any way; the mice in the second group were given a vehicle; and the mice in the third group, the fourth group, and the fifth group were given compound 1 at a dose of 0.1 mg/ear, 0.3 mg/ear, and 1 mg/ear, respectively. Drugs were applied to the right ear of the mice 30 minutes before and 15 minutes after PMA induction, respectively.
Measurement and sampling: Ten hours after PMA induction, the mice were anesthetized and the thickness of the right ear was measured. After measuring the thickness of the right ear, the mouse was immediately euthanized, and the ear piece was collected and weighed.
The assay data was expressed as mean±standard error of mean (Mean±SEM), and the degree of ear swelling and ear weight were analyzed by one-way analysis of variance (One-way ANOVA), wherein p<0.05 was considered a significant difference.

Sequence of Recombinant human PDE4B (Q07343 305-736 limits assumed): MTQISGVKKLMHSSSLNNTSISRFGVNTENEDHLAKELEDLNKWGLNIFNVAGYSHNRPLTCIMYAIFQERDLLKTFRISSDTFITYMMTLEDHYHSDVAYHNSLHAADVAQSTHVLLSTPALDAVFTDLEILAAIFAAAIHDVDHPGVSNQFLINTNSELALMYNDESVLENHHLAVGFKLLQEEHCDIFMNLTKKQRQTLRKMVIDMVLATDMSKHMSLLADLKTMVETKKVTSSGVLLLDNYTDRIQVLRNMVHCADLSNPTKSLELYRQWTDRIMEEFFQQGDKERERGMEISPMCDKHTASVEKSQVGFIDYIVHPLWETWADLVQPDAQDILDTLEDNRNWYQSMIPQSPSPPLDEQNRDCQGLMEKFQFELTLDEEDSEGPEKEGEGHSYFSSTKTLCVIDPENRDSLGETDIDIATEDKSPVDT

## CCOc1cc([C@@H](CS(C)(=O)=O)n2c(=O)[nH]c3cc(F)ccc32)ccc1OC [Compound 1]
[1]
  in vitro activity of inhibiting TNFα production in hPBMC (in words): excellent in vitro activity
[1]; Homo sapiens, PBMC, TNFα production in hPBMC, LPS 18 hours, average in triplicate
  IC50: 0.0639 µM
[2]
  in vitro activity of inhibiting PDE4B (in words): excellent in vitro activity
[2]; PDE4B, 1 μM cAMP substrate, average in triplicate
  IC50: 0.0262 µM
[3]; 0.1 mg/ear
  inhibition rate of ear edema: 22%
  inhibition rate of ear weight gain: 39%
[3]; 0.3 mg/ear
  inhibition rate of ear edema: 39%
  inhibition rate of ear weight gain: 46%
[3]; 1 mg/ear
  inhibition rate of ear edema: 88%
  inhibition rate of ear weight gain: 85%
[3]; three dose groups of 0.1, 0.3 and 1 mg/ear
  effect on the symptoms of PMA-induced ear edema (in words): significant improvement effect
